# According to patent US20120178786A9, “Use of tetramic acid derivatives for controlling pests by drenching, drip application, or dip application” (priority 2006, published 2012):
# Legend:
# Type in all cases: in vivo
# Thrips palmi = assay: Example 7: drench of cucumber plots, Abbott efficacy; settings: 20 mg active substance/plant, two applications at 10-day interval, I-4 240 SC, imidacloprid 100 SL
# Procedure: Plots approximately 5 m^2 in size and containing cucumber plants are drenched, in three replications, against Thrips palmi with an active substance solution containing the active substance I-4 (cis isomer, formulation: 240 SC) and, by way of comparison, with the standard imidacloprid (100 SL) at the application rate stated, corresponding to an approximate water application rate of 300 l/ha. Two applications are effected at a 10-day interval. The test is evaluated in each case 9 days after the first treatment and 7 and 13 days after the second treatment by determining the efficacy with the aid of Abbott's formula.
# [1] = tested on: Tetranychus urticae (TETRUR); assay: Example 5: drench of gardenia plants, Henderson-Tilton efficacy against nymphs; settings: 77 mg active substance/1 potting compost, 240 SC
# Procedure: Gardenia plants cv. “Cape jasmine” in 6-inch pots which had been infected with Tetranychus urticae (TETRUR) two weeks before the beginning of the experiment are drenched, in three replications, with in each case 100 ml of active substance solution containing the active substance I-4 (cis isomer, formulation: 240 SC) and, by way of comparison, with the commercial standard imidacloprid (240 SC) at the application rate stated. The greenhouse temperature is 25-30° C. The test is evaluated 3, 15 and 22 days after the treatment by determining the activity against nymphs on the leaves with the aid of the Henderson-Tilton method.
# Coccus viridis = assay: Example 11: drench of gardenia plants, Henderson-Tilton efficacy against nymphs; settings: 24 mg active substance/1 potting compost, 240 SC
# Procedure: Gardenia plants cv. […] The greenhouse temperature is 27° C. The test is evaluated 7, 15, 21 and 35 days after the treatment by determining the activity against nymphs on the leaves with the aid of the Henderson-Tilton method.
# [2] = tested on: Trialeurodes vaporarium (TRIAVA); assay: Example 10: drip application to tomato plants on rock wool, Abbott efficacy; settings: 20 mg active substance/plant, 100 OD, three treatments
# Procedure: In each case 12 tomato plants cv. “Briljant” on rock wool are treated, in four replications, with a drip application against Trialeurodes vaporarium (TRIAVA) with an active substance solution containing the active substance I-4 (cis isomer, formulation: 100 OD) in comparison with the commercial standard imidacloprid (70 WG) at the application rate stated. The greenhouse temperature is 20° C. Three treatments are carried out at intervals of seven and fourteen days. The test is evaluated 14, 21, 28, 36 and 43 days after the 1st treatment by determining the efficacy with the aid of Abbott's formula.
# [3] = tested on: Frankliniella occidentalis (FRANOC); assay: Example 6: drench of verbena plants, Henderson-Tilton efficacy against nymphs; settings: 12 mg active substance/1 potting compost, 240 SC
# Procedure: Verbena plants (approximate height 13 cm) in 6-inch-pots which are infected with Frankliniella occidentalis (FRANOC) are drenched, in four replications, with an active substance solution containing the active substance I-4 (cis isomer, formulation: 240 SC) and, by way of comparison, with the commercial standard imidacloprid (240 SC) at the application rate stated. The greenhouse temperature is 27-33° C. The test is evaluated 7, 14, 21 and 28 days after the treatment by determining the activity against nymphs on the leaves with the aid of the Henderson-Tilton method.
# Bemisia sp. = assay: Example 15: drench of bell pepper plots, kill rate of larvae on the leaves; settings: 40 + 5 + 5 mg/plant, 240 SC
# Procedure: Plots approximately 2×5 m in size which contain bell pepper plants are treated, in three replications, against Bemisia sp. The active substance example (I-4) cis isomer (240 SC) is drenched in an active substance solution at the application rate stated. The water application rate is 700 l/ha. Three treatments are carried out at intervals of 7 and 14 days. The test is evaluated in each case 7, 14, 21 and 28 days after the 3rd treatment by scoring the kill rate of the larvae on the leaves.
# [4] = tested on: Bemisia argentifolii (BEMIAR); assay: Example 8: drench of tropical sage plants, Henderson-Tilton efficacy against nymphs; settings: 12 mg active substance/1 potting compost, 240 SC
# Procedure: Tropical sage plants cv. “scarlet sage” (approximate height 29 cm) in 6-inch pots and infested with Bemisia argentifolii (BEMIAR) are drenched, in three replications, with an active substance solution containing the active substance I-4 (cis isomer, formulation: 240 SC) and, by way of comparison, with the commercial standard imidacloprid (240 SC) at the application rate stated. The greenhouse temperature is 27-33° C. The test is evaluated 9, 13, 20, 34 and 41 days after the treatment by determining the activity against nymphs on the leaves with the aid of the Henderson-Tilton method.
# Aphis craccivora = assay: Example 3: drench of violet plants, Henderson-Tilton efficacy against nymphs; settings: 12 mg active substance/1 potting compost, 240 SC
# Procedure: Violet plants cv. “Ladies delight” (approximate height 15 cm) in 4-inch pots which had been infected with Aphis craccivora two weeks before the treatment are drenched, in four replications, with an active substance solution containing the active substance I-4 (cis isomer, formulation: 240 SC) and, by way of comparison, with the commercial standard imidacloprid (240 SC) at the application rate stated. The greenhouse temperature is 27-33° C. The test is evaluated 7, 14, 22 and 35 days after the treatment by determining the activity against nymphs on the leaves with the aid of the Henderson-Tilton method.
# [5] = tested on: Madeira mealybug (Phenacoccus madeirensis); assay: Example 13: drench of Coleus plants, Abbott efficacy; settings: 12 mg active substance/1 potting compost, 240 SC
# Procedure: Coleus plants (approximate height 29 cm) in 6-inch pots which have been infected approximately 4 weeks before the beginning of the experiment with Madeira mealybug (Phenacoccus madeirensis) are drenched, in three replications, with an active substance solution containing the active substance I-4 (cis isomer, formulation: 240 SC) and, by way of comparison, with the commercial standard imidacloprid (240 SC) at the application rate stated. The greenhouse temperature is 29° C. The test is evaluated 7, 14, 21 and 28 days after the treatment by determining the efficacy with the aid of Abbott's formula.
smiles,measurement,setting,value
CCOC(=O)OC1=C(c2cc(C)ccc2C)C(=O)N[C@]12CC[C@@H](OC)CC2 [Example I-4],Abbott efficacy (%) against THRIPL,Thrips palmi; 7 d after 2nd treatm.,64.1%
same,Abbott efficacy (%) against THRIPL,Thrips palmi; 9 d after 1st treatm.,66.3%
same,Abbott efficacy (%) against THRIPL,Thrips palmi; 13 d after 2nd treatm.,80.0%
same,Henderson-Tilton efficacy (%) against TETRUR,[1]; 3 d after treatment,39.0%
same,Henderson-Tilton efficacy (%) against TETRUR,[1]; 15 d after treatment,89.1%
same,Henderson-Tilton efficacy (%) against TETRUR,[1]; 22 d after treatment,100%
same,Henderson-Tilton efficacy (%) against Coccus viridis,Coccus viridis; 7 d after treatment,35%
same,Henderson-Tilton efficacy (%) against Coccus viridis,Coccus viridis; 15 d after treatment,45%
same,Henderson-Tilton efficacy (%) against Coccus viridis,Coccus viridis; 21 d after treatment,69%
same,Henderson-Tilton efficacy (%) against Coccus viridis,Coccus viridis; 35 d after treatment,100%
same,Abbott efficacy (%) against TRIAVA,[2]; 14 d after 1st treatment,26.8%
same,Abbott efficacy (%) against TRIAVA,[2]; 21 d after 1st treatment,66.3%
same,Abbott efficacy (%) against TRIAVA,[2]; 28 d after 1st treatment,90.4%
same,Abbott efficacy (%) against TRIAVA,[2]; 36 d after 1st treatment,95.6%
same,Abbott efficacy (%) against TRIAVA,[2]; 43 d after 1st treatment,97.9%
same,Henderson-Tilton efficacy (%) against FRANOC,[3]; 7 d after treatment,100%
same,Henderson-Tilton efficacy (%) against FRANOC,[3]; 14 d after treatment,100%
same,Henderson-Tilton efficacy (%) against FRANOC,[3]; 21 d after treatment,90%
same,Henderson-Tilton efficacy (%) against FRANOC,[3]; 28 d after treatment,100%
same,Efficacy (% Abbott) against Bemisia sp.,Bemisia sp.; 7 d after 3rd treatm.,86.2 % Abbott
same,Efficacy (% Abbott) against Bemisia sp.,Bemisia sp.; 14 d after 3rd treatm.,94.4 % Abbott
same,Efficacy (% Abbott) against Bemisia sp.,Bemisia sp.; 21 d after 3rd treatm.,94.9 % Abbott
same,Efficacy (% Abbott) against Bemisia sp.,Bemisia sp.; 28 d after 3rd treatm.,90.5 % Abbott
same,Henderson-Tilton efficacy (%) against Bemisia argentifolii,[4]; 9 d after treatment,99%
same,Henderson-Tilton efficacy (%) against Bemisia argentifolii,[4]; 13 d after treatment,100%
same,Henderson-Tilton efficacy (%) against Bemisia argentifolii,[4]; 20 d after treatment,98%
same,Henderson-Tilton efficacy (%) against Bemisia argentifolii,[4]; 34 d after treatment,100%
same,Henderson-Tilton efficacy (%) against Bemisia argentifolii,[4]; 41 d after treatment,100%
same,Henderson-Tilton efficacy (%) against Aphis craccivora,Aphis craccivora; 7 d after treatment,100%
same,Henderson-Tilton efficacy (%) against Aphis craccivora,Aphis craccivora; 14 d after treatment,84%
same,Henderson-Tilton efficacy (%) against Aphis craccivora,Aphis craccivora; 22 d after treatment,100%
same,Henderson-Tilton efficacy (%) against Aphis craccivora,Aphis craccivora; 35 d after treatment,100%
same,Abbott efficacy (%) against Phenacoccus madeirensis,[5]; 7 d after treatment,84%
same,Abbott efficacy (%) against Phenacoccus madeirensis,[5]; 14 d after treatment,89%
same,Abbott efficacy (%) against Phenacoccus madeirensis,[5]; 21 d after treatment,99%
same,Abbott efficacy (%) against Phenacoccus madeirensis,[5]; 28 d after treatment,98%
